Consider 11 compounds from publication PMC8294059, “Identification and Immune Assessment of T Cell Epitopes in Five Plasmodium falciparum Blood Stage Antigens to Facilitate Vaccine Candidate Selection and Optimization” (Frontiers in Immunology, 2021).

Read-outs that look alike come from different tables or passages of the source. Where a SMILES comes first, the peptide text is derived from it.

The target of the assay is HLA-A*0301 (Homo sapiens, UniProt P04439). In words: biochemical. The conditions noted are these: allele A*0301. The assay is classed as binding. An outline of the steps: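 Cell-free competition assay: HLA heat-treated 53°C for 15 min to strip endogenous peptides, then mixed with fluorescent high-affinity control peptide and test peptides for 72 h to equilibrium. Displacement read by fluorescence polarization as percent inhibition; IC50 derived from a concentration range.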

The mark [1] stands for this setting: fluorescence polarization competition, read-out: IC50 (nM), in vitro HLA binding affinity.
Where [2] appears, read: cell-free competition, fluorescence polarization at 72 hours, Non-binder = no dose-dependent inhibition, read-out: IC50.

For orientation: IC50 means the concentration at which inhibition is half-maximal. Regarding `CC[C@H](C)[C@H](NC(=O)[C@H](CCCCN)NC(=O)[C@@H](NC(=O)[C@@H](N)Cc1c[nH]cn1)[C@@H](C)O)C(=O)N[C@H](C(=O)N[C@@H](CC(N)=O)C(=O)N[C@@H](CC(=O)O)C(=O)N[C@@H](CCCCN)C(=O)N[C@H](C(=O)N[C@@H](CCCCN)C(=O)O)[C@@H](C)O)[C@@H](C)CC` [RH5_427] (H-HTKIINDKTK-OH), under setting [1], the IC50 amounted to 73000 nM.
Take `CC(C)C[C@H](NC(=O)[C@H](Cc1ccccc1)NC(=O)[C@H](C)NC(=O)[C@@H](N)CO)C(=O)N1CCC[C@H]1C(=O)N[C@H](C(=O)NCC(=O)N[C@@H](C)C(=O)N[C@@H](Cc1ccccc1)C(=O)N[C@@H](CCCCN)C(=O)O)[C@@H](C)O` [AMA1_377] (H-SAFLPTGAFK-OH): the IC50 under setting [1] turned out to be 345 nM.
Same read-out and setting: next, `CC(C)C[C@H](NC(=O)[C@H](Cc1ccc(O)cc1)NC(=O)[C@H](CCC(N)=O)NC(=O)[C@H](CC(N)=O)NC(=O)CNC(=O)[C@@H](NC(=O)[C@H](C)NC(=O)[C@@H](NC(=O)[C@@H]1CCCN1)C(C)C)[C@@H](C)O)C(=O)N[C@@H](CCCCN)C(=O)O` [AMA1_168] (H-PVATGNQYLK-OH): 328000 nM; `CC(C)C[C@H](NC(=O)[C@H](CC(C)C)NC(=O)[C@H](CCC(=O)O)NC(=O)[C@H](CC(=O)O)NC(=O)[C@H](CCCCN)NC(=O)[C@H](CCC(N)=O)NC(=O)[C@H](Cc1ccccc1)NC(=O)[C@@H](NC(=O)[C@@H](N)CCCNC(=N)N)[C@@H](C)O)C(=O)N[C@@H](CCCCN)C(=O)O` [RH5_448] (H-RTFQKDELLK-OH): 24200 nM.
As to `CC[C@H](C)[C@H](NC(=O)[C@H](Cc1ccccc1)NC(=O)[C@@H](NC(=O)[C@H](Cc1ccccc1)NC(=O)[C@@H](NC(=O)[C@@H](N)CCCCN)[C@@H](C)CC)[C@@H](C)O)C(=O)N[C@@H](CCC(=O)O)C(=O)N[C@@H](CC(N)=O)C(=O)N[C@@H](CCCCN)C(=O)O` [EBA175_0058] (H-KIFTFIENK-OH), under setting [2], the concentration for half-maximal inhibition (IC50) is 467 nM.
Regarding DLMNRTFKK [RH5_294], the “IC50 (nM), in vitro HLA binding affinity” value (fluorescence polarization competition) is reported as “Non-Binder”.
Turning to `CC[C@H](C)[C@H](NC(=O)[C@@H](N)Cc1c[nH]cn1)C(=O)N[C@@H](Cc1ccc(O)cc1)C(=O)N[C@H](C(=O)N[C@@H](CCC(N)=O)C(=O)N[C@@H](CCCCN)C(=O)N[C@@H](CCCCN)C(=O)N[C@H](C(=O)N[C@@H](CCCCN)C(=O)O)C(C)C)C(C)C` [CYRPA_076] (H-HIYVQKKVK-OH), the IC50 under setting [1] is 897 nM.
Still for that read-out and setting: the figure for `CC(C)C[C@H](NC(=O)[C@@H]1CCCN1C(=O)[C@H](CC(C)C)NC(=O)[C@H](CO)NC(=O)[C@@H](NC(=O)[C@H](Cc1ccc(O)cc1)NC(=O)[C@H](CO)NC(=O)[C@H](CO)NC(=O)[C@@H](N)CC(C)C)C(C)C)C(=O)N[C@@H](CCCCN)C(=O)O` [CYRPA_161] (H-LSSYVSLPLK-OH) is 654 nM.
Still for that read-out and setting: the figure for `CC(C)[C@H](NC(=O)[C@@H](N)CS)C(=O)N[C@@H](CS)C(=O)N[C@H](C(=O)N[C@@H](Cc1ccc(O)cc1)C(=O)N[C@@H](CC(N)=O)C(=O)N[C@@H](Cc1ccc(O)cc1)C(=O)N[C@@H](Cc1ccc(O)cc1)C(=O)N[C@@H](CCCCN)C(=O)N[C@@H](CCCCN)C(=O)O)[C@@H](C)O` [RIPR_0924] (H-CVCTYNYYKK-OH) is 14400 nM.
On to `CC[C@H](C)[C@H](NC(=O)[C@H](Cc1c[nH]c2ccccc12)NC(=O)[C@H](CCC(=O)O)NC(=O)[C@H](CCCCN)NC(=O)[C@H](Cc1ccc(O)cc1)NC(=O)[C@H](CO)NC(=O)[C@@H](N)CC(N)=O)C(=O)N[C@@H](CO)C(=O)N[C@@H](CCCCN)C(=O)N[C@@H](CCCCN)C(=O)O` [EBA175_0667] (H-NSYKEWISKK-OH), for which, under setting [2], the half-maximal inhibitory concentration (IC50) is 7370 nM.
For the compound `CC[C@H](C)[C@H](NC(=O)[C@H](Cc1ccc(O)cc1)NC(=O)[C@@H](NC(=O)[C@H](Cc1ccc(O)cc1)NC(=O)[C@H](CO)NC(=O)CN)[C@@H](C)CC)C(=O)N[C@@H](CC(=O)O)C(=O)N[C@H](C(=O)N[C@H](C(=O)N[C@@H](CCCCN)C(=O)O)[C@@H](C)CC)[C@@H](C)O` [RH5_402] (H-GSYIYIDTIK-OH), the IC50 under setting [1] amounted to 70800 nM.
